Experimental data reported in patent US4120951A, “Polypeptide hormones of the thymus” (Sloan-Kettering Institute for Cancer Research, priority 1977, dated 1978).
Ends that are not written are not given here.

Tests used:
mouse bone marrow cells = assay: Cytotoxic inhibition test for induction of TL and Thy-1 antigens; format: cell-based; conditions: for absorption of antibodies directed against TL or Thy-1 by treated cells: unfractionated bone marrow cells, 100 ng/ml, 18 hours
Method: Thymin I and Thymin II were isolated from bovine thymus as described. Each was dissolved in phosphate buffered saline (containing 1 mg/ml of bovine serum albumen to minimize adsorbtive losses), distributed into 2 μg lots and lyophilized. Each polypeptide was reconstituted in tissue culture medium at the desired concentrations just prior to use.
(§1) Bone marrow cells were obtained from the femoral marrow. Both spleen and marrow cells were teased into single cell suspensions and washed three times in RPMI 1640 medium supplemented with 10 mM Hepes and 100 U/ml of penicillin and 100 μg/ml of streptomycin. The cells were then suspended in the same medium with 10% bovine serum at a concentration of 5.0×10^6 cells/ml. One milliliter of this suspension was incubated with an appropriate dilution of thymin in 16 mm plastic petrie dishes in a humidified atmosphere containing 5% CO2 in air. At the end of the incubation the cells were washed twice and held at 4° C. at a concentration of 5.0×10^6 cells/ml in culture medium until tested for the presence of TL or Thy-1(0).
ASL-1, a TL positive, Thy 1-2 (0-C3H) positive lymphoma of A strain mice was used as the target cell in all titrations of the antisera used in these experiments, and in the cytotoxic inhibition test to be described below. The lymophoma was maintained by weekly intraperitoneal passage in A/J mice. Lymphoma cells were labelled with Cr^51 and used as target cells in the cytotoxic inhibition test.
Antisera to either TL or Thy-1 (0) were titered to determine the quantity of antibody which was required to kill 50% of the target cells in a standard suspension. The appropriate amount of antiserum was added to each well of a microtiter plate with various dilutions of the cells being tested for their antigen content. The total volume was 0.15 ml. Cells expressing the antigen against which the antiserum was directed absorbed varying amounts of the antibody, and rendered less available to react with the Cr^51 labelled target cells which were added subsequently. The concentration of antibody used was extremely critical to the sensitivity of the test. The antisera to TL or Thy-1 (0) and the cells being tested for their antigen content were incubated together at 4° C. for 90 minutes. After this incubation 50,000 target cells in a volume of […] were added and the incubation continued in the cold for an additional 30 minutes to permit the sensitization of the target cells by the remaining unabsorbed antibody. The plates were then centrifuged at 1,500 rpm for 10 minutes and the supernatant fluid removed. The pelleted cells were resuspended in 0.1 ml or RPMI 1640, containing 4% fresh rabbit serum as a source of complement, and incubated for 45 minutes at 37° C. The cells were then repelleted by centrifugation and a 0.075 ml aliquot of the supernatant fluid was counted in an automatic gamma spectrometer to determine the amount of Cr^51 released from the target cells. All assays were performed in duplicate and the results were expressed by calculating the number of cells required to reduce the relative cytotoxic index (RCI) to 0.5. The RCI was calculated as follows: [formula]

[1] = system: neuromuscular transmission; assay: Electromyographic assay of neuromuscular transmission in mice after intraperitoneal injection; format: in vivo; conditions: for activity of the isolated fraction in producing neuromuscular block: QAE-Sephadex fractions, FIG. 3; for therapeutically effective amount: at least about; for dose producing a statistically significant (P < 0.001) decrement in the electromyographic response: 5 days after dose, supramaximal nerve stimulation 50 impulses per second; for mean decrement: height of tenth muscle action potential as % of the first: 5 days after doses above threshold, controls 94 ± 2%; for dose range at which active: test not stated
Method: To determine the neuromuscular action of Thymin I and Thymin II, the electromyographic response of mice 5 days after various doses of Thymin I or Thymin II is summarized in FIG. 4. Bovine serum albumin (0.5 mg/ml, 0.9% saline) was used as a protein stabilizer and controls were injected with the solvent alone.
In 15 control mice sampled at 75 sites the height of the tenth muscle action potential was 94 ± 2% (mean ± s.e.m.) of the height of the first. The mean values and s.e.m. (vertical bars) are shown for groups of 4-10 mice given various doses of Thymin I(o) and Thymin II (.quadrature.). Statistical significances of differences from the controls were calculated by Student's t-test and are shown by solid symbols (P < 0.001 ), half solid symbols (0.05 > P < 0.001) and open symbols (P > 0.05).
Mice were given 100 ng of Thymin I or solvent and five mice from each group were tested at various times. With supramaximal nerve stimulation at 50 impulses per second the height of the tenth muscle action potential was expressed as a percentage of the first. This change was calculated for five points in each of five to ten mice from each group. For each time point the change in Thymin-treated mice was expressed as a percentage of the change in solvent-treated control mice and the statistical significance of the difference was assessed by Student's t-test. A statistically significant (P < 0.001) abnormality in the electromyogram was first evident at 18 hours, was maximal at 24 hours and persisted through 5 days.
To make the determinations described in FIGS. 4 and 5, extracts were injected into test animals and neuromuscular transmission was studied after an interval of one to five days. Initial 100 g guinea pigs were injected intraperitoneally; neuromuscular transmission was studied in vitro with a preparation of the phrenic nerve and hemidiaphragm. Subsequently, 200 g rats were used; fractions were injected subcutaneously and neuromuscular transmission was assessed electromyographically. […] Female Swiss-Webster mice weighing 25-35 g were injected intraperitoneally, groups of five to ten mice being used to test each fraction. The animals were anesthetized with urethane and electromyography was performed as described. The muscle action potentials were recorded in each mouse following supramaximal nerve stimulation with 10 impulses at a rate of 50 per second. Five sites were sampled in each mouse and for each group of mice the mean standard deviation and s.e.m. were calculated for the change in the height of the muscle action, potential being expressed as a percentage of the height of the first impulse.
The statistical significance of differences found were assessed by student's t-test.

bone marrow cells = assay: Direct cytotoxic test (trypan blue) for TL induction, bone marrow cells; format: cell-based, mouse
Method: as §1
(§2) Bone marrow and spleen cells were obtained by flotation in BSA gradients similar to those used by Komuro and Boyse (Lancet, 10, 39, 1964). These cells were tested for their susceptibility to anti TL and Thy-1(0) antibodies in a direct cytotoxicity test, using the uptake of trypan blue as a measure of cell death.
(§3) The actual number of cells induced could not be determined in the cytotoxic inhibition assay since this test is a measure of the total antigen present in the culture. […] However, unless sufficient numbers of such cells are present they cannot be detected because of a substantial background usually found in such tests. […]

spleen cells = assay: Direct cytotoxic test (trypan blue) for TL induction, spleen cells; format: cell-based, mouse; conditions: 20 ng/ml, 2 hours, least dense BSA gradient fraction
Method: as §1, §2, §3

[2] = single injection of 100 ng, mice

Sequence | concentration of maximal activity (mouse bone marrow cells) | lowest concentration at which active (mouse bone marrow cells) [picogram per mll] | concentration giving maximal induction of TL and Thy-1 antigens (mouse bone marrow cells; bone marrow cells) [ng/mL] | lowest concentration producing a measurable response (induction of TL and Thy-1 antigens) (mouse bone marrow cells; bone marrow cells) [pg/mL] | relative potency in inducing TL and Thy-1 antigens (mouse bone marrow cells; compared with Thymin II) | absorption of antibodies directed against TL or Thy-1 by treated cells (mouse bone marrow cells) | activity of the isolated fraction in producing neuromuscular block [1] | therapeutically effective amount [1] | relative activity on neuromuscular transmission ([1]; compared with Thymin II) | dose producing a statistically significant (P < 0.001) decrement in the electromyographic response ([1]; mice) | mean decrement: height of tenth muscle action potential as % of the first ([1]; mice) [%] | time at which the electromyogram abnormality was maximal [1, 2] [h] | time through which the electromyogram abnormality persisted [1, 2] [days] | time at which the electromyogram abnormality was first evident ([1]; single injection of 100 ng, mice, P < 0.001) [h] | dose range at which active [1] | bone marrow cells killed by anti TL antiserum plus complement (bone marrow cells; 20 ng/ml, 2 hours, least dense BSA gradient fraction) [%] | highest value of cells killed by anti TL antiserum plus complement (bone marrow cells; other experiments, tissue not stated) [%] | spleen cells killed by anti TL antiserum plus complement (spleen cells) [%]
GQFLEDPSVLTKEKLKSELVANNVTLPAGEQRKDVYVQLYLQHLTAVKR [Thymin I, H2 n--gly--gln--phe--leu--glu--asp--pro--ser--val--leu--thr--lys--glu--lys--leu--lys--ser--glu--leu--val--ala--asn--asn--val--thr--leu--pro--ala--gly--glu--gln--arg--lys--asp--val--tyr--val--gln--leu--tyr--leu--gln--his--leu--thr--ala--val--lys--arg--cooh] | 0.2-2 nanogram per mll | 20 | 2 | 20 | slightly more potent | absorbed antibodies | active | at least 0.20 μg/kg of body weight | slightly more active | above 4 ng/mouse | 84 | 24 | 5 | 18 | about 0.1 mg/kg of body weight | 21 | ≤ 28 | 18
SQFLEDPSVLTKEKLKSELVANNVTLPAGEQRKDVYVQLYLQTLTAVKR [Thymin II, H2 n--ser--gln--phe--leu--glu--asp--pro--ser--val--leu--thr--lys--glu--lys--leu--lys--ser--glu--leu--val--ala--asn--asn--val--thr--leu--pro--ala--gly--glu--gln--arg--lys--asp--val--tyr--val--gln--leu--tyr--leu--gln--thr--leu--thr--ala--val--lys--arg--cooh] | 0.2-2 nanogram per mll | 20 | – | – | – | absorbed antibodies | active | at least 1.3 μg/kg of body weight | – | above 32 ng/mouse | 82 | – | – | – | about 0.1 mg/kg of body weight | – | – | –
